Measured values as given in patent US10064865B2, “Composition comprising phosphodiesterase type 5 inhibitor for inhibiting apoptosis of nerve cells” (ARIBIO INC., priority 2012, dated 2018).
Marks after values point to notes of the source that are not given here.

Legend:
caspase-3 = assay: Example 1 immunohistochemistry: caspase-3-immunoreactive cells; type: in vivo, Sprague-Dawley (SD) rats; details: for Numbers of neurons: Caspase-3+: 29 days after neuron apoptosis
Protocol: (§1) The induction of neuron apoptosis was carried out by damaging the right hemisphere of the brain of animals. Specifically, animals were anesthetized with 2 or 3% isoflurane in the mixture of 70% N2O and 28.5% O2, and were maintained with 1 to 1.5% isoflurane in the mixture of 70% N2O and 28.5% O2. After that the temporalis muscle was bisected and reflected through an incision made midway between the eye and the eardrum canal. The proximal MCA was exposed through a subtemporal craniectomy by microdental drills without removing the zygomatic arch and without transecting the facial nerve. […] Mortality was less than 5%. For sham control, all procedures were performed in the same way, with the exception of the occlusion of the MCA.
After deparraffinized of cerebral histological paraffin sections, citrate buffer antigen (epitope) retrieval pretreatment were conducted as previously (Shi S R et al., J Histochem Cytochem. 41:1599-604(1993)). Briefly, pre-heat water bath with staining dish containing 10 mM citrate buffers (pH 6.0) until temperature reaches 95-100° C. Immerse slides in the staining dish and place the lid loosely on the staining dish. Incubate for 20 minutes and turn off the water bath. Place the staining dish at room temperature and allow the slides to cool for 20 minutes. After epitope retrivals, sections were immunostained as following steps:
Incubate sections with methanol and 0.3% H2O2 for 30 minutes for blocking endogenous peroxidase activity at room temperature and rinse in 0.01M phosphate buffered saline (PBS; pH 7.2) for 3 times;
Incubate sections with normal horse serum blocking solution (Vector Lab. Inc., Burlingame, USA. Dilution 1:100) for 1 hour to block non-specific binding of immunoglobulin at room temperature in humidity chamber, and rinse in 0.01M PBS for 3 times;
Incubate sections with primary antisera for overnight at 4° C. in humidity chamber and rinse in 0.01M PBS for 3 times;
Incubate sections with biotinylated universal secondary antibody (Vector Lab., Dilution 1:50) for 1 hour at room temperature in humidity chamber and rinse in 0.01M PBS for 3 times;
Incubate sections with ABC reagents (Vectastain Elite ABC Kit, Vector Lab., Dilution 1:50) for 1 hour at room temperature in humidity chamber and rinse in 0.01M PBS for 3 times;
Incubate sections in Peroxidae substrate kit (Vector Lab.) for 5 min at room temperature and rinse in 0.01M PBS for 3 times;
Counterstain with Mayer's hematoxylin solution and rinse in running tap water for 30 minutes;
Dehydrate through 95% ethanol for 2 minutes, 100% ethanol for 3 times and Clear in xylene for two times; and
Coverslip with permanent mounting medium and observed under light microscope (Nikkon, Japan).
Histomorphometry: The nerve cells occupied by over 10% of immunoreactivities, the density, of each antiserum, caspase-3 and PARP were regarded as immunoreactive. In the present study, the numbers of each caspase-3 and PARP-immunoreactive cells among mm^2 of ipsilateral peri-infarct/defect cerebral cortex were measured using a computer-assisted image analysis program, respectively.
(§2) All data were expressed as mean±standard deviation (S.D.) of ten rats. Multiple comparison tests for different dose groups were conducted. Variance homogeneity was examined using the Levene test (Levene A, Clin Otalary, 1981; 6:145-51). […] Statistical analyses were conducted using SPSS (Release 14K, SPSS Inc., USA; Ludbrook, Clin Exp Pharmacol Physiol, 1997; 24:294-6). In addition, the percent changes between neuron apoptosis control and mirodenafil treated rats were calculated to help the understanding of the efficacy of test material as follow equation 3. Percentage changes as compared with neuron apoptosis control (%)=[((Data of mirodenafil treated groups−Data of neuron apoptosis control)/Data of neuron apoptosis control)×100] [EQUATION 3]

[1] = system: neuron apoptosis-operated rats, ipsilateral cerebral cortex; assay: Example 1 histopathology (H&E): cerebral atrophy and degenerative neurons; type: in vivo, Sprague-Dawley (SD) rats; details: for Cerebral atrophic % / Numbers of neurons: Degenerative cells: 29 days after neuron apoptosis
Protocol: Total one hundred healthy male Sprague-Dawley (SD) rats (6-wk old upon receipt; Japan; Body weight ranged in 180-200 g upon receipt) were used after acclimatization for […]. Animals were allocated five per polycarbonate cage in a temperature (20-25° C.) and humidity (50-55%) controlled room. Light:dark cycle was 12 hr:12 hr, and standard rodent chow (Samyang, Korea) and water were supplied free to access. All animals were treated in accordance with the Guidelines for Care and Use of Laboratory Animals of Daegu Haany University based on the Guide for the Care and Use of Laboratory Animals by Institute of Laboratory Animal Resources, Commission on Life Science, National Research Council, USA on 1996, Washington D.C. Experimental groups were as follows:
The mirodenafil (mirodenafil 2HCl; SK Chemical Life Science Business, KR) was used in this experiment. […] Mirodenafil was stored at 4° C. in a refrigerator to protect from light and humidity until used. Three different dosages, 0.5, 1 and 2 mg/kg of mirodenafil were directly dissolved in saline and subcutaneously administered in a volume of 1 ml/kg on the dorsal back skins, once a day for 28 days from 24 hrs after stabilization periods from operation. In saline and neuron apoptosis control rats, equal volumes of saline as vehicle were administered, instead of mirodenafil, respectively.
as §1
At 29 days after neuron apoptosis rats were sacrificed. Brains were removed, washed in chilled phosphate buffered saline (PBS, pH7.4), and dissected into 6 coronal sections (2 mm thickness) ranging from 2 to 14 mm from the frontal brain pole on the rat brain stainless steel coronal matrix (Harvard, USA). Brain slices prepared by the stainless steel coronal matrix were directly fixed in 10% NBF, not stained with TTC. Then, embedded in paraffin, cross-sectioned, and stained with hematoxylin and eosin (H&E) for observing general histopathology of cerebral cortex. […] The histopathologist was blindes to group distribution when this analysis was made.
Histomorphometry: The atrophic % of ipsilateral cerebral cortex was calculated as following equation 1 as compared with intact contralateral hemisphere. In addition, the numbers of degenerative neurons were also measured in the restricted view fields of cerebral cortex, mm^2, respectively. Cerebral atrophy formation=(Contralateral cerebral cortex area−ipsilateral cerebral cortex area)/Contralateral cerebral cortex area×100(%) [EQUATION 1]
as §2

CCCOc1ccc(S(=O)(=O)N2CCN(CCO)CC2)cc1-c1nc2c(CCC)cn(CC)c2c(=O)[nH]1 [Mirodenafil, mirodenafil]
numbers of caspase-3-immunoreactive neurons, change as compared with neuron apoptosis control (caspase-3; 0.5 mg/kg): −33.43% | Numbers of neurons: Caspase-3+ (caspase-3; 0.5 mg/kg s.c. once a day): 43.80 ± 10.37^ab cells/mm^2 of cerebral cortex | numbers of caspase-3-immunoreactive neurons, change as compared with neuron apoptosis control (caspase-3; 1 mg/kg): −76.44% | Numbers of neurons: Caspase-3+ (caspase-3; 1 mg/kg s.c. once a day): 15.50 ± 3.57^ab cells/mm^2 of cerebral cortex | numbers of caspase-3-immunoreactive neurons, change as compared with neuron apoptosis control (caspase-3; 2 mg/kg): −77.96% | Numbers of neurons: Caspase-3+ (caspase-3; 2 mg/kg s.c. once a day): 14.50 ± 3.69^ab cells/mm^2 of cerebral cortex | ipsilateral cerebral atrophic %, change as compared with neuron apoptosis control ([1]; 0.5 mg/kg): −8.70% | numbers of degenerative neurons, change as compared with neuron apoptosis control ([1]; 0.5 mg/kg): −44.47% | Cerebral atrophic % ([1]; 0.5 mg/kg s.c. once a day): 51.38 ± 10.74^a % | Numbers of neurons: Degenerative cells ([1]; 0.5 mg/kg s.c. once a day): 45.20 ± 8.97^ab cells/mm^2 of cerebral cortex | ipsilateral cerebral atrophic %, change as compared with neuron apoptosis control ([1]; 1 mg/kg): −46.42% | numbers of degenerative neurons, change as compared with neuron apoptosis control ([1]; 1 mg/kg): −73.46% | Cerebral atrophic % ([1]; 1 mg/kg s.c. once a day): 30.15 ± 10.28^ab % | Numbers of neurons: Degenerative cells ([1]; 1 mg/kg s.c. once a day): 21.60 ± 9.43^ab cells/mm^2 of cerebral cortex | ipsilateral cerebral atrophic %, change as compared with neuron apoptosis control ([1]; 2 mg/kg): −53.31% | numbers of degenerative neurons, change as compared with neuron apoptosis control ([1]; 2 mg/kg): −76.54% | Cerebral atrophic % ([1]; 2 mg/kg s.c. once a day): 26.28 ± 9.12^ab % | Numbers of neurons: Degenerative cells ([1]; 2 mg/kg s.c. once a day): 19.10 ± 2.08^ab cells/mm^2 of cerebral cortex
